Measurements reported in publication PMC6792352, “Limited Chemical Structural Diversity Found to Modulate Thyroid Hormone Receptor in the Tox21 Chemical Library” (Environmental Health Perspectives, 2019).
Counter-ions that a name gives are not always drawn. Like-named read-outs stand apart in the source and are kept apart here. One block for each molecule: values may come before it.

Experiments:
[1] = tested on: thyroid hormone receptor (endogenous TRα and TRβ); experiment: GH3-TRE-Ag primary qHTS, luciferase reporter, agonist mode (TOX21_TR_LUC_GH3_Agonist, aeid 803); type: cell-based, rat; settings: for GH3-TRE-Ag AC50 hitc: hit call from tcpl
[2] = tested on: thyroid hormone receptor (endogenous TRα and TRβ); experiment: GH3-TRE-Ag-Followup confirmation (TOX21_TR_LUC_GH3_Agonist_Followup, aeid 2226); type: cell-based, rat; settings: for GH3-TRE-Ag-Followup hitc: hit call from tcpl; for AC50: read-out: GH3-TRE-Ag-Followup AC50
human RXRα = target: T1, human RXRα (Homo sapiens, UniProt P19793); experiment: RXRa-bla-Ag mammalian one-hybrid beta-lactamase assay (TOX21_TR_RXR_BLA_Agonist_Followup_ratio, aeid 2253); type: cell-based; settings: for tr-followup-rxr-bla-agonist-1 hitc: hit call from tcpl; for Emax: read-out: EMax (% of Control) tr-followup-rxr-bla-agonist-1; for AC50: read-out: tr-followup-rxr-bla-agonist-1 AC50
T1 construct: host or cells: GeneBLAzer UAS-bla HEK 293T
T1 sequence (P19793 227-458 limits assumed): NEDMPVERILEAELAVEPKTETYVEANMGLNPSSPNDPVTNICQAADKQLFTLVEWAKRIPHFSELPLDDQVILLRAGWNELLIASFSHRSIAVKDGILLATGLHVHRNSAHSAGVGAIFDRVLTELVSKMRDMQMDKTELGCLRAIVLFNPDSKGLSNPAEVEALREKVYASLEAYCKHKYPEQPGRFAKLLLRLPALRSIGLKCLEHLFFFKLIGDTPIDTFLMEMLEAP

[3] = target: T2, TRα ligand-binding domain (Homo sapiens, UniProt P10827); experiment: TRa-coa LanthaScreen TR-FRET coactivator (SRC-2 peptide) recruitment, agonist (TOX21_TRA_COA_Agonist_Followup_ratio, aeid 2230); type: biochemical; settings: for TRa-coa hitc: hit call from tcpl; for Emax: read-out: EMax (% of Control) tra-coa-agonist-followup-1
T2 construct: the receptor LBDs expressed as glutathione S-transferase (GST) fusion proteins; purchased
T2 sequence (P10827 163-410 isoform P10827-2 limits assumed, other chains not shown): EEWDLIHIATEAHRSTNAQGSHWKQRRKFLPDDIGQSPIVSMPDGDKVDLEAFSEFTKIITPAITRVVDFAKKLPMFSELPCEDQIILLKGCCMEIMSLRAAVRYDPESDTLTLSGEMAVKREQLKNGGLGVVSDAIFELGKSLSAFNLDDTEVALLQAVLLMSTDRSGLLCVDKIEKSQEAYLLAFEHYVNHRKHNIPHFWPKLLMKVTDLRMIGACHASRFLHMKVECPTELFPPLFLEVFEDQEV

[4] = tested on: Tox21 cell viability assays (different cell types); experiment: Global cytotoxicity: eighteen Tox21 cell viability assays; type: cell-based
[5] = tested on: thyroid hormone receptor (TR); experiment: Classification of TR actives across characterization assays (TR-Ag / RXR-Ag; TR model binary); design: key to Categorization Code: FP, false positive; settings: for Categorization Code: TR agonist characterization; for TR_Model_Binary_Agonist / TR_Model_Binary_Antagonist: candidate chemicals in Tables 2 and 3 define actives
From the text: Active rate comparison between receptors. […]; [Kleinstreuer et al. 2017]). We first removed chemicals classified as pharmaceuticals because these sets of chemicals are biased toward drugs targeting estrogen receptors and androgen receptors. […]. For TR, we cross-referenced these same chemicals for testing against TR and used candidate chemicals in Tables 2 and 3 to define active rates.
Complete results from both GH3-TRE qHTS agonist, antagonist, and viability mode for the 8,305 compounds are provided in Excel Table S2. […]. […]. Together with some potential false negatives, these chemicals, totaling 84 in all, were screened for activity in a series of assays for confirmation in the GH3-TRE-Ag assay; specificity screening in the TRβ-UAS-bla HEK 293T and RXRα-UAS-bla HEK 293T mammalian one-hybrid assays; viability assays for the HEK293T parental cell line; and orthogonal screening in two TR:coactivator recruitment assays, TRa-coa and TRb-coa. […].

[6] = target: T3, human TRβ ligand-binding domain (Homo sapiens, UniProt P10828); experiment: TRb-bla agonist mammalian one-hybrid beta-lactamase assay (TOX21_TRB_BLA_Agonist_Followup_ratio, aeid 2236); type: cell-based; design: host or cells: GeneBLAzer UAS-bla HEK 293T; settings: for TRb-bla hitc: hit call from tcpl; for Emax: read-out: EMax (% of Control) trb-bla-agonist-followup-1
T3 sequence (P10828 217-461 limits assumed): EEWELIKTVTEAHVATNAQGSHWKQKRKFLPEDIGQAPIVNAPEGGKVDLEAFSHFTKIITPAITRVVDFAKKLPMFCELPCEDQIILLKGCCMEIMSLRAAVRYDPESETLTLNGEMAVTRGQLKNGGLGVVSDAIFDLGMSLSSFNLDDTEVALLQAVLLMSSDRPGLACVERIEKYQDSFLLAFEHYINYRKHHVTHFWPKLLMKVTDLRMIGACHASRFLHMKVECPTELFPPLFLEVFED

[7] = target: T3, human TRβ ligand-binding domain; experiment: TRb-coa LanthaScreen TR-FRET coactivator (SRC-2 peptide) recruitment, agonist (TOX21_TRB_COA_Agonist_Followup_ratio, aeid 2244); type: biochemical; design: host or cells: GeneBLAzer UAS-bla HEK 293T; settings: for TRb-coa hitc: hit call from tcpl; for Emax: read-out: EMax (% of Control) trb-coa-agonist-followup-1
GH3-TRE-Luc cell line [8] = experiment: GH3-TRE-Via cell viability, CellTiter-Fluor (TOX21_TR_LUC_GH3_Antagonist_viability, aeid 805)
in vitro = settings: rat, gh3-tre-luc cells, AC50 (uM) modified / 1000
GH3-TRE-Luc cell line [9] = settings: read-out: AC50 (uM) modified / 1000, viability, 1 nM T3 present, 24 h
[10] = median over Tox21 viability assays
[11] = aeid 803 TOX21_TR_LUC_GH3_Agonist, tcpl output
[12] = agonist, read-out: TRa-coa AC50
[13] = agonist, read-out: TRb-bla AC50
[14] = agonist, read-out: TRb-coa AC50

SMILES: O=C(Cl)OCCOCCOC(=O)Cl [Diethlylene glycol bis chloroformate]
EMax (% of Control) gh3-tre-agonist [1]: 19.2 % of Control
GH3-TRE-Ag AC50 hitc [1]: 1
AC50 ([1]; read-out: GH3-TRE-Ag AC50): 5.6 µM
EMax (% of Control) gh3-tre-agonist-followup-1_agonist [2]: 21.1 % of Control
GH3-TRE-Ag-Followup hitc [2]: 0
tr-followup-rxr-bla-agonist-1 hitc (human RXRα): 0
Emax (human RXRα): -1.9%
AC50 (human RXRα): > 92 µM
AC50 [3]: > 92 µM
TRa-coa hitc ([3]; agonist): 0
Emax [3]: -0.217%
GLOBAL CYTOTOXICITY cytotox.number_Active ([4]; # active of 18 total Tox21 viability assays): 0
GLOBAL CYTOTOXICITY cytotox.median [4, 10]: >92
Categorization Code [5]: FP
AC50 [6]: > 92 µM
TRb-bla hitc ([6]; agonist): 0
Emax [6]: 6.2%
AC50 [7]: > 92 µM
TRb-coa hitc ([7]; agonist): 0
Emax [7]: -0.349%
AC50 (GH3-TRE-Luc cell line [8]; Rattus norvegicus, read-out: TR_LUC_GH3_Antagonist_viability AC50 (uM)): > 92 µM
TR_LUC_GH3_Antagonist_viability hitc (GH3-TRE-Luc cell line [8]; hit call from tcpl): 0

SMILES: O=C([O-])[C@H](O)[C@@H](O)[C@H](O)[C@H](O)CO.O=C([O-])[C@H](O)[C@@H](O)[C@H](O)[C@H](O)CO.[Ba+2] [D-Gluconic acid, barium salt]
resp_max (maximum response value) ([1]; Table S2, aeid 803, per sample): 3.109 percent_activity
hitc ([1]; Table S2, aeid 803, tcpl hit call): 0
hitc_modified ([1]; Table S2, aeid 803, final hitc after manual review): 0
AC50 ([1]; Table S2, aeid 803, inactive set to 1000, read-out: AC50 (uM) modified): > 50 µM

SMILES: NC(CO)(CO)CO [tromethamine]
activity in GH3-TRE agonist assay [1]: completely inactive
CC50 at 24 h (in vitro): > 90 µM

SMILES: N[C@@H](Cc1cc(I)c(O)c(I)c1)C(=O)O [3,5-diiodo-L-tyrosine]
activity in GH3-TRE agonist assay [1]: completely inactive
max_mean [1]: 0.9106 percent_activity
max_med ([1]; aeid 803, at max_med_conc (log) -0.39794, coff 20): 0.5533 percent_activity
hitc ([1]; aeid 803 TOX21_TR_LUC_GH3_Agonist, modl cnst): 0
resp_max [1, 11]: 3.287 percent_activity
resp_min [1, 11]: -1.703 percent_activity
CC50 at 24 h (in vitro): > 50 µM

SMILES: Cc1cccc(C)c1[N+](=O)[O-] [1,3-Dimethyl-2-nitrobenzene]
EMax (% of Control) gh3-tre-agonist [1]: 18.9 % of Control
GH3-TRE-Ag AC50 hitc [1]: 1
EMax (% of Control) gh3-tre-agonist-followup-1_agonist [2]: 9.2 % of Control
GH3-TRE-Ag-Followup hitc [2]: 0
AC50 [2]: > 92 µM
tr-followup-rxr-bla-agonist-1 hitc (human RXRα): 0
Emax (human RXRα): 11.4%
AC50 (human RXRα): > 92 µM
AC50 [3, 12]: > 92 µM
TRa-coa hitc ([3]; agonist): 0
Emax [3]: -0.13%
GLOBAL CYTOTOXICITY cytotox.median [4]: >92
GLOBAL CYTOTOXICITY cytotox.number_Active [4]: 0
Categorization Code [5]: FP
CC50 at 24 h (in vitro): > 90 µM
AC50 [6, 13]: > 92 µM
TRb-bla hitc ([6]; agonist): 0
Emax [6]: 6.6%
AC50 [7, 14]: > 92 µM
TRb-coa hitc ([7]; agonist): 0
Emax [7]: -0.3%

TR_Model_Binary_Agonist [5]: 0
TR_Model_Binary_Antagonist [5]: 0
SMILES: CC(=O)OC(C)c1ccccc1 (racemic) [(+/-)-alpha-Methylbenzyl acetate]
CC50 at 24 h (in vitro): > 90 µM

Categorization Code [5]: FP
SMILES: Cc1occc(=O)c1O [Maltol]
EMax (% of Control) gh3-tre-agonist [1]: 11.6 % of Control
GH3-TRE-Ag AC50 hitc [1]: 1
EMax (% of Control) gh3-tre-agonist-followup-1_agonist [2]: 2.6 % of Control
GH3-TRE-Ag-Followup hitc [2]: 0
AC50 [2]: > 92 µM
tr-followup-rxr-bla-agonist-1 hitc (human RXRα): 0
Emax (human RXRα): -0.248%
AC50 (human RXRα): > 92 µM
AC50 [3, 12]: > 92 µM
TRa-coa hitc ([3]; agonist): 0
Emax [3]: -0.369%
GLOBAL CYTOTOXICITY cytotox.number_Active [4]: 0
GLOBAL CYTOTOXICITY cytotox.median [4, 10]: >92
CC50 at 24 h (in vitro): > 90 µM
AC50 [6, 13]: > 92 µM
TRb-bla hitc ([6]; agonist): 0
Emax [6]: 2.7%
AC50 [7, 14]: > 92 µM
TRb-coa hitc ([7]; agonist): 0
Emax [7]: -0.3%

SMILES: Nc1ccc(N)cc1 [1,4-Benzenediamine]
CC50 (GH3-TRE-Luc cell line [9]; Tox21_110001=Tox21_302943): 68.9 µM
CC50 at 24 h (in vitro): 68.8 µM

SMILES: CCCCCCCCCCCCc1ccccc1O [Dodecylphenol]
CC50 (GH3-TRE-Luc cell line [9]; Tox21_110001=Tox21_303360): 15.3 µM
CC50 at 24 h (in vitro): 11.8 µM

TR_Model_Binary_Agonist [5]: 0
TR_Model_Binary_Antagonist [5]: 0
SMILES: CCCCCCCCCC=CCC1CC(=O)OC1=O (centres unmarked) [(2-Dodecenyl)succinic anhydride]
CC50 at 24 h (in vitro): > 90 µM

SMILES: CC(C)[C@@]1(NC(=O)[C@@H]2C[C@@H]3c4cccc5[nH]cc(c45)C[C@H]3N(C)C2)O[C@@]2(O)[C@@H]3CCCN3C(=O)[C@H](Cc3ccccc3)N2C1=O [Dihydroergocristine]
CC50 (GH3-TRE-Luc cell line [9]; Tox21_110001=Tox21_113115): 21.9 µM
CC50 at 24 h (in vitro): 21 µM

SMILES: c1ccc2sc(SSN3CCOCC3)nc2c1 [2-(Morpholin-4-yldithio)-1,3-benzothiazole]
CC50 (GH3-TRE-Luc cell line [9]; Tox21_110001=Tox21_303278): 35 µM
CC50 at 24 h (in vitro): 18.6 µM

SMILES: CC(C)(c1cc(Br)c(O)c(Br)c1)c1cc(Br)c(O)c(Br)c1 [3,3',5,5'-Tetrabromobisphenol A]
CC50 (GH3-TRE-Luc cell line [9]; Tox21_110001=Tox21_201981): 43.3 µM
CC50 (GH3-TRE-Luc cell line [9]; Tox21_110001=Tox21_300561): 38.6 µM
CC50 at 24 h (in vitro): 39.3 µM

SMILES: OC(CCN1CCCCC1)(c1ccccc1)C1CC2C=CC1C2 (centres unmarked) [Biperiden hydrochloride]
CC50 (GH3-TRE-Luc cell line [9]; Tox21_110001=Tox21_113064): 27 µM
CC50 at 24 h (in vitro): 22.6 µM

SMILES: CCCCCCCCCCCCCCCC[N+](C)(C)Cc1ccccc1 [Benzylhexadecyldimethylammonium chloride]
CC50 (GH3-TRE-Luc cell line [9]; Tox21_110001=Tox21_112574): 13.4 µM
CC50 at 24 h (in vitro): 21.5 µM

SMILES: CC(C)(c1ccccc1)c1ccc(O)cc1 [4-Cumylphenol]
CC50 (GH3-TRE-Luc cell line [9]; Tox21_110001=Tox21_300056): 51 µM
CC50 at 24 h (in vitro): 45.2 µM

SMILES: CN(C)CCC(c1ccc(Cl)cc1)c1ccccn1 (centres unmarked) [Chlorpheniramine maleate]
CC50 (GH3-TRE-Luc cell line [9]; Tox21_110001=Tox21_303456): 41.3 µM
CC50 at 24 h (in vitro): 40.4 µM

SMILES: Oc1ccc(Cl)cc1Sc1cc(Cl)ccc1O [Fenticlor]
CC50 (GH3-TRE-Luc cell line [9]; Tox21_110001=Tox21_110031): 11.6 µM
CC50 at 24 h (in vitro): 8.49 µM
